From patent US11472803B2, “7-substituted 1-aryl-naphthyridine-3-carboxylic acid amides and use thereof” (Bayer Aktiengesellschaft, priority 2016, dated 2022)

Molecular target: T1, human M2 receptor (Homo sapiens, UniProt P08172)
T1 construct: expressed in transfected cells; host or cells: CHO-DUKX (CHO-DUKX-M2-GIRK)
T1 sequence (P08172 1-466): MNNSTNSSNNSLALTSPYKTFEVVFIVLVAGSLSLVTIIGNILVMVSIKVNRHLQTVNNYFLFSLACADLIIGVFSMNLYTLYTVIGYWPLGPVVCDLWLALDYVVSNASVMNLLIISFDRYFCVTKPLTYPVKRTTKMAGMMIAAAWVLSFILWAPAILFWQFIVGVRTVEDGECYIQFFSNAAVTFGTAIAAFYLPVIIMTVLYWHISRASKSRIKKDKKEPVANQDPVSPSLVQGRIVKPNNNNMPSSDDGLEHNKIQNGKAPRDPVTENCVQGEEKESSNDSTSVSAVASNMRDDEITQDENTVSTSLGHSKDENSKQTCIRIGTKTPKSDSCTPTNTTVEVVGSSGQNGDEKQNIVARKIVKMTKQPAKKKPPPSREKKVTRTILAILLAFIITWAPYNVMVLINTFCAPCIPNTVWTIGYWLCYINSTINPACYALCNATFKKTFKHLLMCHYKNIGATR
Test: Functional M2-GIRK1/4 activation test: allosteric potency (EC50) and efficiency at EC20 acetylcholine
Type: cell-based
Conditions: CHO-DUKX-M2-GIRK cells; for EC50: voltage-sensitive dye, acetylcholine at EC20, in some cases mean of two or more determinations; for Emax / Efficiency: boosting of the acetylcholine effect at EC20 acetylcholine concentration
Method in brief: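 Positive allosteric modulation measured as boosting of an EC20 acetylcholine response: hyperpolarization via GIRK1/4 in CHO-DUKX-M2-GIRK cells, monitored by membrane-potential dye fluorescence over 60 s after agonist, compound preadded. Hill-function fit gives EC50 and efficiency.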

SMILES | EC50 [nM] | Emax [%] | Efficiency [%]
CC(NC(=O)c1cn(-c2c(F)cc(F)cc2F)c2nc(N3CCC(CO)(CO)CC3)c(F)cc2c1=O)C(F)(F)C(F)(F)F (single isomer, unassigned) [Example 187, 7-[4,4-bis(hydroxymethyl)piperidin-1-yl]-6-fluoro-4-oxo-N-(3,3,4,4,4-pentafluorobutan-2-yl)-1-(2,4,6-trifluorophenyl)-1,4-dihydro-1,8-naphthyridine-3-carboxamide] | 9.9 | 90 | –
CCC(C)(C)NC(=O)c1cn(-c2c(F)cc(F)cc2F)c2nc(N(C)C)c(F)cc2c1=O [Example 61, 7-(Dimethylamino)-6-fluoro-N-(2-methylbutan-2-yl)-4-oxo-1-(2,4,6-trifluorophenyl)-1,4-dihydro-1,8-naphthyridine-3-carboxamide] | 2.2 | 94 | –
O=C(NC(C1CC1)C(F)(F)C(F)(F)F)c1cn(-c2c(F)cc(F)cc2F)c2nc(N3CC4(COC4)C3)c(F)cc2c1=O (single isomer, unassigned) [Example 204, N-[1-cyclopropyl-2,2,3,3,3-pentafluoropropyl]-6-fluoro-7-(2-oxa-6-azaspiro[3.3]hept-6-yl)-4-oxo-1-(2,4,6-trifluorophenyl)-1,4-dihydro-1,8-naphthyridine-3-carboxamide] | 17 | 97 | –
O=C(NCC(F)(F)F)c1cn(-c2c(F)cc(F)cc2Cl)c2nc(N3C[C@@H](O)[C@H](O)C3)c(F)cc2c1=O (single isomer, unassigned) [Example 222] | 550 | – | 61
CC(NC(=O)c1cn(-c2c(F)cc(F)cc2F)c2nc(N3CCCC(O)(CO)C3)c(F)cc2c1=O)C(F)(F)C(F)(F)F (centres unmarked) [Example 192, 6-Fluoro-7-[3-hydroxy-3-(hydroxymethyl)piperidin-1-yl]-4-oxo-N-[3,3,4,4,4-pentafluorobutan-2-yl]-1-(2,4,6-trifluorophenyl)-1,4-dihydro-1,8-naphthyridine-3-carboxamide] | 128 | 100 | –
CC(C)[C@@H](C)NC(=O)c1cn(-c2c(F)cc(F)cc2F)c2nc(N3C[C@@H](O)[C@@H](O)C3)c(F)cc2c1=O [Example 99, 7-[(3R,4S)-3,4-Dihydroxypyrrolidin-1-yl]-6-fluoro-N-[(2R)-3-methylbutan-2-yl]-4-oxo-1-(2,4,6-trifluorophenyl)-1,4-dihydro-1,8-naphthyridine-3-carboxamide] | 35.5 | 96 | –
CC(C)C(NC(=O)c1cn(-c2c(F)cc(F)cc2F)c2nc(N3C[C@@H](O)[C@@H](O)C3)c(F)cc2c1=O)C(C)C [Example 103, 7-[(3R,4S)-3,4-Dihydroxypyrrolidin-1-yl]-N-(2,4-dimethylpentan-3-yl)-6-fluoro-4-oxo-1-(2,4,6-trifluorophenyl)-1,4-dihydro-1,8-naphthyridine-3-carboxamide] | 8.1 | 100 | –
CN(C)c1nc2c(cc1F)c(=O)c(C(=O)NC(C)(C)CC(F)(F)F)cn2-c1c(F)cc(F)cc1F [Example 63, 7-(Dimethylamino)-6-fluoro-4-oxo-N-(4,4,4-trifluoro-2-methylbutan-2-yl)-1-(2,4,6-trifluoro-phenyl)-1,4-dihydro-1,8-naphthyridine-3-carboxamide] | 3.9 | 92 | –
CC(C)C(NC(=O)c1cn(-c2c(F)cc(F)cc2F)c2nc(N3CC[C@H](O)C3)c(F)cc2c1=O)C(F)(F)F (mixture of isomers) [Example 126, 6-Fluoro-7-[(3S)-3-hydroxypyrrolidin-1-yl]-4-oxo-N-[1,1,1-trifluoro-3-methylbutan-2-yl]-1-(2,4,6-trifluorophenyl)-1,4-dihydro-1,8-naphthyridine-3-carboxamide] | 3.9 | 97 | –
CC(C)(NC(=O)c1cn(-c2c(F)cc(F)cc2F)c2nc(N3CC[C@H](O)C3)c(F)cc2c1=O)C(F)(F)F [Example 125, 6-Fluoro-7-[(3S)-3-hydroxypyrrolidin-1-yl]-4-oxo-N-(1,1,1-trifluoro-2-methylpropan-2-yl)-1-(2,4,6-trifluorophenyl)-1,4-dihydro-1,8-naphthyridine-3-carboxamide] | 12 | 97 | –
CC(C)(NC(=O)c1cn(-c2c(F)cc(F)cc2F)c2nc(N3CCOCC3)c(F)cc2c1=O)C(F)(F)F [Example 149, 6-Fluoro-7-(morpholin-4-yl)-4-oxo-N-(1,1,1-trifluoro-2-methylpropan-2-yl)-1-(2,4,6-trifluorophenyl)-1,4-dihydro-1,8-naphthyridine-3-carboxamide] | 21 | 92 | –
CCC(NC(=O)c1cn(-c2c(F)cc(F)cc2F)c2nc(N3C[C@@H](O)[C@H](O)C3)c(F)cc2c1=O)C(C)C (single isomer, unassigned) [Example 29] | 2.5 | 100 | –
O=C(NC12CC(C1)C2)c1cn(-c2c(F)cccc2F)c2nc(N3C[C@@H](O)[C@H](O)C3)c(F)cc2c1=O [Example 5, N-(Bicyclo[1.1.1]pent-1-yl)-1-(2,6-difluorophenyl)-7-[(3R,4R)-3,4-dihydroxypyrrolidin-1-yl]-6-fluoro-4-oxo-1,4-dihydro-1,8-naphthyridine-3-carboxamide] | 69 | 99 | –
CC(NC(=O)c1cn(-c2c(F)cc(F)cc2F)c2nc(N3C[C@@H](O)[C@H](O)C3)c(F)cc2c1=O)C(F)(F)C(F)(F)F (mixture of isomers) [Example 8, 7-[(3R,4R)-3,4-Dihydroxypyrrolidin-1-yl]-6-fluoro-4-oxo-N-[3,3,4,4,4-pentafluorobutan-2-yl]-1-(2,4,6-trifluorophenyl)-1,4-dihydro-1,8-naphthyridine-3-carboxamide] | – | 96 | –

The remaining compounds from weak to strong by EC50, led by results:

EC50 [nM] | Emax [%] | Efficiency [%] | SMILES
58 | 100 | – | O=C(NC(C(F)(F)F)C(F)(F)F)c1cn(-c2ncc(F)cc2F)c2nc(N3CCC(CO)(CO)CC3)c(F)cc2c1=O [Example 195, 7-[4,4-bis(hydroxymethyl)piperidin-1-yl]-1-(3,5-difluoropyridin-2-yl)-6-fluoro-N-(1,1,1,3,3,3-hexafluoropropan-2-yl)-4-oxo-1,4-dihydro-1,8-naphthyridine-3-carboxamide]
51 | – | 100 | CC(NC(=O)c1cn(-c2ncc(F)cc2F)c2nc(N3CC(O)C(O)C3)c(F)cc2c1=O)C(F)(F)C(F)(F)F (single isomer, unassigned) [Example 46]
20.5 | 100 | – | CC(NC(=O)c1cn(-c2ncc(F)cc2F)c2nc(N3C[C@@H](O)[C@H](O)C3)c(F)cc2c1=O)C(F)(F)C(F)(F)F (mixture of isomers) [Example 39, 1-(3,5-difluoropyridin-2-yl)-7-[(3R,4R)-3,4-dihydroxypyrrolidin-1-yl]-6-fluoro-4-oxo-N-[(2)-3,3,4,4,4-pentafluorobutan-2-yl]-1,4-dihydro-1,8-naphthyridine-3-carboxamide]
13 | 97 | – | CCC(NC(=O)c1cn(-c2c(F)cc(F)cc2F)c2nc(N3C[C@@H](O)[C@@H](O)C3)c(F)cc2c1=O)C(C)C (mixture of isomers) [Example 104, 7-[(3R,4S)-3,4-Dihydroxypyrrolidin-1-yl]-6-fluoro-N-[2-methylpentan-3-yl]-6-fluoro-4-oxo-1-(2,4,6-trifluorophenyl)-1,4-dihydro-1,8-naphthyridine-3-carboxamide]
12 | 100 | – | C[C@@H](NC(=O)c1cn(-c2c(F)cc(F)cc2Cl)c2nc(N3C[C@@H](O)[C@H](O)C3)c(F)cc2c1=O)C1CC1 [Example 44, 1-(2-chloro-4,6-difluorophenyl)-N-[(1R)-1-cyclopropylethyl]-7-[(3R,4R)-3,4-dihydroxypyrrolidin-1-yl]-6-fluoro-4-oxo-1,4-dihydro-1,8-naphthyridine-3-carboxamide]
10 | – | 95 | CCN(CC(C)O)c1nc2c(cc1F)c(=O)c(C(=O)N[C@@H](C1CC1)C(F)(F)F)cn2-c1c(F)cc(F)cc1F (single isomer, unassigned) [Example 67]
7.6 | – | 84 | CC(C)C(NC(=O)c1cn(-c2c(F)cc(F)cc2F)c2nc(N3C[C@@H](O)[C@@H](O)C3)c(F)cc2c1=O)C(F)(F)F (single isomer, unassigned) [Example 138]
7.2 | – | 99 | CCC(COC(F)(F)F)NC(=O)c1cn(-c2c(F)cc(F)cc2F)c2nc(N3CC[C@H](O)C3)c(F)cc2c1=O (single isomer, unassigned) [Example 111]
3.3 | 91 | – | CC(C)C(NC(=O)c1cn(-c2c(F)cc(F)cc2F)c2nc(N3C[C@@H](O)[C@@H](O)C3)c(F)cc2c1=O)C(F)(F)F (single isomer, unassigned) [Example 137]
2.8 | 84 | – | CC(C)C(NC(=O)c1cn(-c2c(F)cc(F)cc2Cl)c2nc(N3C[C@@H](O)[C@H](O)C3)c(F)cc2c1=O)C(F)(F)F (stereo partly drawn) [Example 136, 1-(2-Chloro-4,6-difluorophenyl)-7-[(3R,4R)-3,4-dihydroxypyrrolidin-1-yl]-6-fluoro-4-oxo-N-[1,1,1-trifluoro-3-methylbutan-2-yl]-1,4-dihydro-1,8-naphthyridine-3-carboxamide]
